For data set [1] the following is noted: ref [20], [21]; cited from earlier work.
The test system of data set [2] is K562/ADR cells. Kind of data set: Annexin V-FITC/PI apoptosis assay. The class given is cell-based, human. The conditions noted are these: 5 μg/mL DOX·HCl and/or 10 µg/mL CQ, 48 h.
The next data set deals with K562 cells. Description: Cytotoxicity by CCK-8 kit, 48 h. Format: cell-based. The conditions noted are these: Homo sapiens. The protocol:
(§1) The cytotoxicity of free DOX·HCl, free CQ, physical mixture of free DOX·HCl and CQ (DC), physical mixture of PPAP and cholesteryl hemisuccinate (PPAP/C) and drug-loaded nanovesicles on MCF-7 cells, MCF-7/ADR cells, K562 cells or K562/ADR cells was investigated at 48 h via CCK-8 kit. Accordingly, the reversal index (RI) of DOX·HCl for MCF-7/ADR cells and K562/ADR cells was calculated using the following formula: RI = […]. The combination index (CI) between DOX⋅HCl and CQ at different ratios was calculated as follows: CI = D1/(Dm)1 + D2/(Dm)2 + D1*D2/(Dm)1*(Dm)2, where D1 and (Dm)1 represent the IC50 values of DOX⋅HCl applied in combination or alone, respectively, and D2 and (Dm)2 represent the IC50 values of CQ applied in combination or alone, respectively. In addition, apoptosis analysis was implemented using the Annexin V-FITC/PI kit (LianKe, China) based on the kit instructions. The details were provided by Supplementary Material (Supplementary section 1). […]
(§2) Cytotoxicity and annexin V-FITC/PI apoptosis assay
(§3) To investigate the cytotoxicity of free DOX·HCl, free CQ, physical mixture of free DOX·HCl and CQ, PPAP/C and drug-loaded nanovesicles, various cell lines (MCF-7, […]
(§4) cells/well, respectively, and cultured in RPMI 1640 containing 10 % fetal bovine serum […]
(§5) at 37 °C with 5 % CO2. After 24 h, cells were exposed to increasing concentrations of different formulations for 48 h. Then, 10 µL of CCK-8 reagent was added to each well and the plates were incubated for 2 h. And the absorbency was determined by a microplate reader (Thermo, USA) at 450 nm. […]
(§6) Afterwards, rhodamine 123 (2 µg/mL) was incubated with these cells for 30 […]
(§7) minutes at 37°C . […]
(§8) 104 cells was collected for each sample at the appropriate period.

The test system of a further data set is MCF-7 cells. Kind of data set: Cytotoxicity by CCK-8 kit, 48 h. The class given is cell-based. The conditions noted are these: Homo sapiens. The protocol: as §1, §2, §3, §4, §5, §6, §7, §8
The subject of data set [3] is MCF-7/ADR cells. Kind of data set: Annexin V-FITC/PI apoptosis assay. The conditions noted are these: 5 μg/mL DOX·HCl and/or 10 µg/mL CQ, 48 h. Format: cell-based, human.
The target in another data set is T1, P-gp (Homo sapiens, UniProt P08183).
T1 construct: the extremely high expression of P-gp existed in MCF-7/ADR cells and K562/ADR cells; host or cells: MCF-7/ADR and K562/ADR cells
T1 sequence (P08183 whole entry): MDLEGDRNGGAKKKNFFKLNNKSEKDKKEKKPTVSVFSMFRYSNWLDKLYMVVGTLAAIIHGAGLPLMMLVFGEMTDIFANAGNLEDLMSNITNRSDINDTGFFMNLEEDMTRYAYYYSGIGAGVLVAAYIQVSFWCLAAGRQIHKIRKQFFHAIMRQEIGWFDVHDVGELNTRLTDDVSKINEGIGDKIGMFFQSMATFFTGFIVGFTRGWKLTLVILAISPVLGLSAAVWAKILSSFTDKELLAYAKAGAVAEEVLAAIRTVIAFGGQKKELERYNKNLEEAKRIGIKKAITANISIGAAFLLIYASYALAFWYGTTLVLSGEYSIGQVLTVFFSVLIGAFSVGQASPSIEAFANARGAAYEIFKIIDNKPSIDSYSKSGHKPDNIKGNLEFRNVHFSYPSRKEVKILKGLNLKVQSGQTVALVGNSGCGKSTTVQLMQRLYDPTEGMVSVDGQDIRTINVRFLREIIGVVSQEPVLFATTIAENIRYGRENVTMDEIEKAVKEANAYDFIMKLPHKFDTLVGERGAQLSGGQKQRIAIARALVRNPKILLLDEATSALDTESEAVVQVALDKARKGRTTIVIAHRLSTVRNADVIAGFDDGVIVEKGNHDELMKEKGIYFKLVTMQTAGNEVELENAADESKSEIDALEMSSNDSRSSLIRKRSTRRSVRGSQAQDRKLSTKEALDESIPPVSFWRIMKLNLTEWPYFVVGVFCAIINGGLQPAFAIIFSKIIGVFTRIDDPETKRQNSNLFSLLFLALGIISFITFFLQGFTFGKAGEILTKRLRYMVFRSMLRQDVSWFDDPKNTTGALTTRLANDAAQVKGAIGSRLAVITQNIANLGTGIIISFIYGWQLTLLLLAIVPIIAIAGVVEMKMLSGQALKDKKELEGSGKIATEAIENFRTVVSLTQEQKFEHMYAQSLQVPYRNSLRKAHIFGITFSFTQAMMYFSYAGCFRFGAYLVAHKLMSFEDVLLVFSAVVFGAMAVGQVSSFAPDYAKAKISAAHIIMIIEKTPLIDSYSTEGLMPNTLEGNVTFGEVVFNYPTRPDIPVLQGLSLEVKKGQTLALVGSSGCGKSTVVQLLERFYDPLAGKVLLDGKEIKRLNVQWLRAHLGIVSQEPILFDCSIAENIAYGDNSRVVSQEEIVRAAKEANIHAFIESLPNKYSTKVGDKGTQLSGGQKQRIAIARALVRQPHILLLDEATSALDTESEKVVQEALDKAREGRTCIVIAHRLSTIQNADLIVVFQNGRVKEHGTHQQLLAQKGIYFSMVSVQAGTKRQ
Kind of data set: P-gp functional activity (rhodamine 123 accumulation, flow cytometry). The conditions noted are these: MCF-7/ADR and K562/ADR cells, increasing CQ concentrations. The class given is cell-based. As for the experimental part:
at 37 °C with 5 % CO2. After 24 h, cells were exposed to increasing concentrations of different formulations for 48 h. Then, 10 µL of CCK-8 reagent was added to each well and the plates were incubated for 2 h. And the absorbency was determined by a microplate reader (Thermo, USA) at 450 nm. Data are reported as means of triplicate […]
The apoptosis analysis was further investigated. Briefly, MCF-7/ADR or K562/MDR cells (2 × 10^5 cells/well) were seeded in 12-well plates and incubated overnight in RPMI 1640 containing 10 % fetal bovine serum. Afterwards, the cells were incubated with various formulations for 48 h at the final DOX·HCl and CQ concentration of 5 and 10 µg/mL, respectively. The cells were treated according to the kit instructions and analyzed by flow cytometry.
P-gp functional activity evaluation
Flow cytometry analysis was used to investigate the effect of CQ on the functional activity of P-gp through monitoring the intracellular uptake of rhodamine 123, namely, a kind of P-gp substrate. Specifically, MCF-7/ADR cells and K562/ADR cells (2 × 10^5 cells/well) were seeded in 12-well plates, respectively. […] Then the cell suspension was analyzed by flow cytometry with the 488 nm argon ion laser. Also, the individual fluorescence of 104 cells was collected for each sample at the appropriate period.

The subject of data set [4] is MCF-7/ADR cells. Description: Cytotoxicity by CCK-8 kit, 48 h. The class given is cell-based, human.
Procedure: (§10) Accordingly, the reversal index (RI) of DOX·HCl for MCF-7/ADR cells and K562/ADR cells was calculated using the following formula: RI = IC50 of the test formulation / IC50 of free DOX·HCl.
Data set [5] has as its system K562/ADR cells. Description: Cytotoxicity by CCK-8 kit, 48 h. The class given is cell-based, human.
Procedure: as §10
For data set [6] the following is noted: mouse, in vivo. As for the experimental part:
(§9) The BALB/c nude mice were subcutaneously inoculated with K562/ADR cells (2×10^7 cells) on the right flank to construct K562/ADR tumor-bearing mice models. After 10 days, mice were randomly divided into seven groups (n = 5) once the tumors reached about 80 mm^3. And then various formulations were injected intravenously through the tail vein every other day for four times and saline was taken as the control group. […] Later, the mice were sacrificed and the tumors were excised and weighted. In addition, tumors and major organs (heart, liver, spleen, lung, and kidney) were collected for slice analysis by hematoxylin and eosin (H&E) staining. The tumors were also analyzed by immunohistochemical detection of Ki67, immunofluorescence assay of LC3 and terminal deoxynucleotidyl transferased dUTP nick end labeling (TUNEL) assay.

For another data set, the system named is K562/ADR tumors. Kind of data set: In vivo anti-tumor activity. More on the design: species or system BALB/c nude mice. The conditions noted are these: K562/ADR tumor-bearing nude mice, i.v. at 0, 2, 4 and 6 days, Day 16. As for the experimental part: as §9

Structures can show the parent of a compound that is named as a salt. Where two headings read alike, the source gives them in different places.

Consider `CCN(CC)CCCC(C)Nc1ccnc2cc(Cl)ccc12` (centres unmarked) [CQ, Chloroquine], for which the “plasma protein binding rate” value in data set [1] is 60%. For the same molecule, the Apoptosis rate with K562/ADR cells [2] is 40.17%; in the data set on MCF-7/ADR cells [3], 33.64%. In addition, the IC50 with K562 cells (K562, 48 h) worked out at 17.4 ± 1.34 µg/mL; in the data set on MCF-7 cells (MCF7, 48 h) it was 23.9 ± 0.42 µg/mL. Also, the “effect on efflux activity of P-gp (rhodamine 123 accumulation)” value at P-gp was “can inhibit the efflux activity of P-gp”.

For the molecule `COc1cccc2c1C(=O)c1c(O)c3c(c(O)c1C2=O)C[C@@](O)(C(=O)CO)C[C@@H]3O[C@H]1C[C@H](N)[C@H](O)[C@H](C)O1` [DOX·HCl, Doxorubicin hydrochloride], the IC50 in the data set with MCF-7/ADR cells [4] (Homo sapiens, NCI/ADR-RES, MCF-7/ADR cells, 48 h, read-out: IC50 of DOX·HCl) is 72.1 µg/mL; in the data set with K562/ADR cells [5] (Homo sapiens, K562/ADR cells, 48 h, read-out: IC50 of DOX·HCl) it was 18.9 µg/mL; in the data set on K562 cells (K562 cells, within 48 h, read-out: IC50), 0.15 ± 0.06 µg/mL; in the data set with MCF-7 cells (MCF7, MCF-7 cells, within 48 h, read-out: IC50), 0.08 ± 0.01 µg/mL. The “DOX·HCl-resistance index” value in the data set with MCF-7/ADR cells [4] (MCF-7/ADR cells vs sensitive cells) is 902 fold; in the data set with K562/ADR cells [5] (K562/ADR cells vs sensitive cells) it was 126 fold. The results for the Apoptosis rate in the data set with K562/ADR cells [2] and with MCF-7/ADR cells [3] were 42.56% and 40.83%, respectively. Further, the “body weight change during treatment” value in data set [6] is on record as “sharp decrease in body weight”. The “histopathological abnormalities of hearts (H&E)” value in data set [6] is “severe histopathological abnormalities and lesions in the cardiac muscles”. Also, in the data set on K562/ADR tumors, the “tumor inhibition rate (TIR)” value came to 28.80%.

The values above are taken from PMC9131275, “Drug-induced self-assembled nanovesicles for doxorubicin resistance reversal via autophagy inhibition and delivery synchronism” (Theranostics, 2022).
